Test results published in US7439372B2, “Therapeutic compounds” (Allergan, Inc., priority 2006, dated 2008).

Key:
[1] = target: T1, hDP/Gqs5 (Homo sapiens, UniProt Q13258); assay: FLIPR calcium signal, HEK-293(EBNA) cells expressing hDP/Gqs5; type: cell-based
T1 construct: expressed in transfected cells; host or cells: HEK-293(EBNA)
T1 sequence (Q13258 1-359): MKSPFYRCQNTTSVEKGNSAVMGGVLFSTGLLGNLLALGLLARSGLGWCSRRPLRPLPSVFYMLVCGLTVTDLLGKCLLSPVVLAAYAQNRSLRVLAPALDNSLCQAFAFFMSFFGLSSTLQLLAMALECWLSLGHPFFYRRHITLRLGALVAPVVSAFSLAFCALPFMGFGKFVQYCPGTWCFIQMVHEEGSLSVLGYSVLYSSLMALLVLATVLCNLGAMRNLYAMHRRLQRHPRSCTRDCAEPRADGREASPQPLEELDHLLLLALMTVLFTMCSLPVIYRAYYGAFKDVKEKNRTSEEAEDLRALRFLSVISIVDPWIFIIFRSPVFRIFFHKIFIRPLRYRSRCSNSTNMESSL
Method: (§1) HEK-293(EBNA) cells, stably expressing one type or subtype of recombinant human prostaglandin receptors (prostaglandin receptors expressed: hDP/Gqs5; hEP1; hEP2/Gqs5; hEP3A/Gqi5; hEP4/Gqs5; hFP; hIP; hTP), were cultured in 100 mm culture dishes in high-glucose DMEM medium containing 10% fetal bovine serum, 2 mM l-glutamine, 250 µg/ml geneticin (G418) and 200 μg/ml hygromycin B as selection markers, and 100 units/ml penicillin G, 100 µg/ml streptomycin and 0.25 μg/ml amphotericin B.
(§2) Cells were seeded at a density of 5×10^4 cells per well in Biocoat® Poly-D-lysine-coated black-wall, clear-bottom 96-well plates (Becton-Dickinson) and allowed to attach overnight in an incubator at 37° C. Cells were then washed two times with HBSS-HEPES buffer (Hanks Balanced Salt Solution without bicarbonate and phenol red, 20 mM HEPES, pH 7.4) using a Denley Cellwash plate washer (Labsystems). After 45 minutes of dye-loading in the dark, using the calcium-sensitive dye Fluo-4 […] at a final concentration of 2 μM, plates were washed four times with HBSS-HEPES buffer to remove excess dye leaving 100 μl in each well. Plates were re-equilibrated to 37° C. for a few minutes.
(§3) Cells were excited with an Argon laser at 488 nm, and emission was measured through a 510-570 nm bandwidth emission filter (FLIPR™, Molecular Devices, Sunnyvale, Calif.). Drug solution was added in a 50 µl volume to each well to give the desired final concentration. The peak increase in fluorescence intensity was recorded for each well. On each plate, four wells each served as negative (HBSS-HEPES buffer) and positive controls (standard agonists: BW245C (hDP); PGE2 (hEP1; hEP2/Gqs5; hEP3A/Gqi5; hEP4/Gqs5); PGF2α (hFP); carbacyclin (hIP); U-46619 (hTP), depending on receptor). The peak fluorescence change in each drug-containing well was then expressed relative to the controls.
(§4) Compounds were tested in a high-throughput (HTS) or concentration-response (CoRe) format. In the HTS format, forty-four compounds per plate were examined in duplicates at a concentration of 10^−5 M. To generate concentration-response curves, four compounds per plate were tested in duplicates in a concentration range between 10^−5 and 10^−11 M. The duplicate values were averaged. In either, HTS or CoRe format each compound was tested on at least 3 separate plates using cells from different passages to give an n≧3.

[2] = target: EP2 (Homo sapiens, UniProt P43116); assay: cAMP measurement, EP2 (data in parentheses); type: cell-based; conditions: data in parentheses refer to cAMP measurement
EP2, sequence (P43116 whole entry): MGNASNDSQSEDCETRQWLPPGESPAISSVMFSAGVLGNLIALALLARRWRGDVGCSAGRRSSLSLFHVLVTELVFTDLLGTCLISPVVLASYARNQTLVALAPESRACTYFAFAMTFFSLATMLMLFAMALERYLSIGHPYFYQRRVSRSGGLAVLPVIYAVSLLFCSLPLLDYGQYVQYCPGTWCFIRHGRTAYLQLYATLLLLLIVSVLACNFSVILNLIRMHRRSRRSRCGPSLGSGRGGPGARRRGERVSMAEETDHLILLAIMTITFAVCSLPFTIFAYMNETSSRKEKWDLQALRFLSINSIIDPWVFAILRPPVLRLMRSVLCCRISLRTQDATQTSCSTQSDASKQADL

[3] = target: T2, hFP (Homo sapiens, UniProt P43088); assay: FLIPR calcium signal, HEK-293(EBNA) cells expressing hFP; type: cell-based
T2 construct: expressed in transfected cells; host or cells: HEK-293(EBNA)
T2 sequence (P43088 whole entry): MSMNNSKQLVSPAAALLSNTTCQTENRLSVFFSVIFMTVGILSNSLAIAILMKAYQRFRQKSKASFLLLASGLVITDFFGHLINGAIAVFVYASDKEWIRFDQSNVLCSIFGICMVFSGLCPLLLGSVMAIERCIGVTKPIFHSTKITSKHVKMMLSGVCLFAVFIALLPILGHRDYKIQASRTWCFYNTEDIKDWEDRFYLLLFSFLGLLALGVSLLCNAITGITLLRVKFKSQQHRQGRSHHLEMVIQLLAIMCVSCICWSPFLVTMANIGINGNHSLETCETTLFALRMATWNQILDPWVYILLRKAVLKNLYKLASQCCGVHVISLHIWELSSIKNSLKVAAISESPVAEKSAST
Method: as §1, §2, §3, §4

[4] = target: T3, EP4 receptors (Homo sapiens, UniProt P35408); assay: Radioligand binding, [3H]PGE2, HEK-293 cells stably expressing EP4 receptors; conditions: [3H]PGE2 competition
T3 construct: expressed in transfected cells; host or cells: HEK-293
T3 sequence (P35408 whole entry): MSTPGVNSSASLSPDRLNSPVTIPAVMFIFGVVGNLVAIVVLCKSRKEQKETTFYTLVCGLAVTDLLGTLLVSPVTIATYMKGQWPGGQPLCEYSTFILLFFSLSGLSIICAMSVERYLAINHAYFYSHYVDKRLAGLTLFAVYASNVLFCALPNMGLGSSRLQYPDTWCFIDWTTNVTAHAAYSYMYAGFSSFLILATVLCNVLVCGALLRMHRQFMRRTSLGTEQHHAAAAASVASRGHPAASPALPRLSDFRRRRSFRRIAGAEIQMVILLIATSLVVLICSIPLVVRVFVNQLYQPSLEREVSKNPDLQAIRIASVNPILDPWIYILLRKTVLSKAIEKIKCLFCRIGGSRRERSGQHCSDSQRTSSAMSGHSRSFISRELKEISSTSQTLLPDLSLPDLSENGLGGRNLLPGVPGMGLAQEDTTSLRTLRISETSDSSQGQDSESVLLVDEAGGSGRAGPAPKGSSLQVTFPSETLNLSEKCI
Method: HEK-293 cells stably expressing the human or feline FP receptor, or EP1, EP2, or EP4 receptors were washed with TME buffer, scraped from the bottom of the flasks, and homogenized for 30 sec using a Brinkman PT 10/35 polytron. TME buffer was added to achieve a final 40 ml volume in the centrifuge tubes (the composition of TME is 100 mM TRIS base, 20 mM MgCl2, […]; 10N HCl is added to achieve a pH of 7.4).
The cell homogenate was centrifuged at 19000 r.p.m. for 20 min at 4° C. using a Beckman Ti-60 rotor. The resultant pellet was resuspended in TME buffer to give a final 1 mg/ml protein concentration, as determined by Biorad assay. Radioligand binding competition assays vs. [^3H-]17-phenyl PGF2α (5 nM) were performed in a 100 μl volume for 60 min. Binding reactions were started by adding plasma membrane fraction. The reaction was terminated by the addition of 4 ml ice-cold TRIS-HCl buffer and rapid filtration through glass fiber GF/B filters using a Brandel cell harvester. The filters were washed 3 times with ice-cold buffer and oven dried for one hour.
[^3H-]PGE2 (specific activity 180 Ci mmol) was used as the radioligand for EP receptors. [^3H]17-phenyl PGF2α was employed for FP receptor binding studies. Binding studies employing EP1, EP2, EP4 and FP receptors were performed in duplicate in at least three separate experiments. A 200 μl assay volume was used. Incubations were for 60 min at 25° C. and were terminated by the addition of 4 ml of ice-cold 50 mM TRIS-HCl, followed by rapid filtration through Whatman GF/B filters and three additional 4 ml washes in a cell harvester (Brandel). Competition studies were performed using a final concentration of 5 nM [^3H]-PGE2, or 5 nM [^3H] 17-phenyl PGF2α and non-specific binding determined with 10^−5M of unlabeled PGE2, or 17-phenyl PGF2α, according to receptor subtype studied.

Row | SMILES | Ca2+ Signal-EC50(nM) DP [1] | EC50 [2] [nM] | Ca2+ Signal-EC50(nM) FP [3] | EC50 ([1]; read-out: Ca2+ Signal-EC50(nM) DP) [nM] | Ki [4] [nM]
1 | CCCCCC(O)c1ccc([C@@H]2[C@@H](CCCc3ccc(C(=O)O)s3)CCC2(Cl)Cl)cc1 (stereo partly drawn) [compound 3] | notactive | 3 | notactive |  | 
2 | CCCCCC(O)c1ccc([C@H]2C(=O)CC[C@@H]2C/C=C\CCCC(=O)O)cc1 (stereo partly drawn) [compound 5] | notactive | 34 | notactive |  | 4210
3 | CCCCCC(O)c1ccc([C@@H]2[C@@H](C/C=C\CCCC(=O)O)CC[C@H]2O)cc1 (stereo partly drawn) [compound 7] | notactive | 73 | notactive |  | 
4 | CCCCCC(O)c1ccc([C@H]2C(=O)C=C[C@@H]2CCCc2ccc(C(=O)O)s2)cc1 (stereo partly drawn) [compound 11] | notactive | 9 | notactive |  | 1940

More lines, in order of falling EC50 [2], values ahead:

Row | Ca2+ Signal-EC50(nM) DP [1] | EC50 [2] [nM] | Ca2+ Signal-EC50(nM) FP [3] | EC50 ([1]; read-out: Ca2+ Signal-EC50(nM) DP) [nM] | Ki [4] [nM] | SMILES
5 | notactive | 94 | notactive |  | 1030 | CCCCCC(O)c1ccc([C@@H]2[C@@H](C/C=C\CCCC(=O)O)CC[C@H]2Cl)cc1 (stereo partly drawn) [compound 6]
6 |  | 9 | notactive | 9060 |  | CCCCCC(O)c1ccc([C@H]2C(=O)CC[C@@H]2CCCc2ccc(C(=O)O)s2)cc1 (stereo partly drawn) [compound 2]
7 | notactive | 5 | notactive |  |  | CCCCCC(O)c1ccc([C@H]2C(=O)CC[C@@H]2CCCc2ccc(C(=O)O)s2)cc1 (stereo partly drawn) [compound 1]
